Experiments:
Assay in all cases: Minimum Inhibitory Concentration (MIC) test, growth inhibition in 96 well plates via optical density
Format in all cases: cell-based
[1] = test system: Aspergillus brasiliensis; conditions: lowest concentration with complete growth inhibition, A. brasiliensis; for MIC: Aspergillus brasiliensis, read-out: MIC in ppm Aspergillus brasiliensis
Description: (§1) The Minimum Inhibitory Concentration (MIC) test is a test on growth inhibition. The estimation of MICs is executed in 96 well plates. Through the comparison of bacterial growth with positive and negative controls via optical density (OD), different concentrations of given test substances are evaluated.
(§2) Bacteria were cultivated under adjusted conditions based on information of the German Collection of Microorganisms and Cell Cultures (DSMZ) and stored in 10% or 50% glycerol prior to use. Afterwards, the following method was applied: Growth medium (according to microorganism) was added to each well of the microplate. Then, test-substances solved in DMSO, and strain specific benchmarks were added. Additionally, […] (water controls only with medium) and solvent controls (DMSO controls only with medium) were performed. Finally, the microorganisms were added in a concentration of 1 to 6×10^6 CFU/ml (CFU=colony forming units). The incubation of the microplates was carried out at appropriate conditions.
(§3) According to the resulting growth, substance concentrations are labelled either as inhibiting or not and MIC is defined as the lowest concentration where a complete growth inhibition is visible. Experiments at concentration limits (highest concentration labelled as growth and lowest concentration labelled as inhibiting) are performed at least twice.
(§4) Tested concentrations were adjusted to performance of test substance, but in general: 5,000 ppm steps between 50,000 ppm and 10,000 ppm, and 2500 ppm steps below 10,000 ppm, finishing with 1000 ppm. To enhance resolution of the approach, additional intermediate steps were included in individual cases. […] For ethylhexylglycerin and 1,2-pentanediol, pure substance without DMSO was tested.
(§5) To verify that the tested combinations act synergistically against microorganisms, corresponding experiments were conducted with Staphylococcus aureus, Candida albicans, Aspergillus brasiliensis, Pseudomonas aeruginosa and Escherichia coli. The synergistic activities of MAA-1 and different antimicrobial compounds in a mixture of 50% and 50% were determined by measuring the MIC of the mixture.
(§6) In order to calculate the synergy index with MIC values, the Kull equation was used as follows:
(§7) [formula] • wherein • SI is the Synergy Index according to Kull • MICA is the MIC value for Substance A • MICB is the MIC value for Substance B • MICmixture is the MIC value for the mixture of substances A and B • PA is the proportion of the substance A in the mixture • PB is the proportion of the substance B in the mixture
(§8) A Synergy Index (SI) with a value lower than 1 indicates a synergistic effect of the mixture that has been tested. Values higher than 1 indicate the absence of a synergistic effect.
(§9) For mixtures for which no MIC value has been determined, the calculation of an SI is not applicable (marked as n.a. in the following tables).

[2] = test system: Candida albicans; conditions: lowest concentration with complete growth inhibition, C. albicans; for MIC: Candida albicans, read-out: MIC in ppm Candida albicans
Description: as §1, §2, §3, §4, §5, §6, §7, §8, §9

[3] = test system: Escherichia coli; conditions: lowest concentration with complete growth inhibition, E. coli; for MIC: Escherichia coli, read-out: MIC in ppm Escherichia coli
Description: as §1, §2, §3, §4, §5, §6, §7, §8, §9

[4] = test system: Pseudomonas aeruginosa; conditions: lowest concentration with complete growth inhibition, P. aeruginosa; for MIC: Pseudomonas aeruginosa, read-out: MIC in ppm Pseudomonas aeruginosa
Description: as §1, §2, §3, §4, §5, §6, §7, §8, §9

[5] = test system: Staphylococcus aureus; conditions: lowest concentration with complete growth inhibition, S. aureus; for MIC: Staphylococcus aureus, read-out: MIC in ppm Staphylococcus aureus
Description: as §1, §2, §3, §4, §5, §6, §7, §8, §9

SMILES	MIC [1]	MIC [2]	MIC [3]	MIC [4]	MIC [5]	MIC in ppm Aspergillus brasiliensis [1]	MIC in ppm Candida albicans [2]	MIC in ppm Escherichia coli [3]	MIC in ppm Pseudomonas aeruginosa [4]	MIC in ppm Staphylococcus aureus [5]
CCCC(O)CO (stereo not drawn) [1,2-Pentanediol]	17.5 mg/mL	12.5 mg/mL	15 mg/mL	30 mg/mL	35 mg/mL					
CC(=O)c1ccc(O)cc1 [4-Hydroxy-acetophenone, 4-Hydroxyacetophenone]						2,500 ppm	6,000 ppm	2,500 ppm	4,000 ppm	5,000 ppm
CCCCC(CC)COCC(O)CO (stereo not drawn) [Ethylhexylglycerin]						1,000 ppm	1,000 ppm	2,500 ppm	50,000 ppm	1,000 ppm

Other lines, results leading:

MIC [1]	MIC [2]	MIC [3]	MIC [4]	MIC [5]	MIC in ppm Aspergillus brasiliensis [1]	MIC in ppm Candida albicans [2]	MIC in ppm Escherichia coli [3]	MIC in ppm Pseudomonas aeruginosa [4]	MIC in ppm Staphylococcus aureus [5]	SMILES
20 mg/mL	7.5 mg/mL	2.5 mg/mL	> 25 mg/mL	2.5 mg/mL						CCOC(=O)CNC1=C/C(=N/c2ccccc2)CC(C)(C)C1 [MAA-1]
> 30 mg/mL	25 mg/mL	> 25 mg/mL	> 30 mg/mL	25 mg/mL						COc1ccc(/N=C2\CC(C)(C)CC3=C2SCC(C(=O)O)N3)cc1OC (stereo not drawn) [MAA-13, 8-((3,4-dimethoyxphenyl)imino)-6,6-dimethyl-3,4,5,6,7,8-hexahydro-2-H-benzol[b][1,4]thiazine-3-carboxylic acid]
> 30 mg/mL	> 25 mg/mL	15 mg/mL	> 30 mg/mL	> 25 mg/mL						CC1(C)CC(NCC(=O)O)=C/C(=N/c2ccccc2)C1 [MAA-20, 2-[(5,5-dimethyl-3-phenylimino-cyclohexen-1-yl)amino]acetic acid]
